{"source": "patent US10168342B2", "about": "“Lipid probes and uses thereof” (THE SCRIPPS RESEARCH INSTITUTE, priority 2015, dated 2019)", "test_in_all_cases": "isoTOP-ABPP mapping of AEA-DA-modified peptides in Neuro2a cells", "format_in_all_cases": "cell-based", "key": {"[1]": {"molecular_target": "T1, AEA-DA-modified peptides in Neuro2a cells (Mus musculus, UniProt Q8R127)", "T1 construct": "endogenous in cells; host or cells: Neuro2a", "T1 sequence (Q8R127 whole entry)": "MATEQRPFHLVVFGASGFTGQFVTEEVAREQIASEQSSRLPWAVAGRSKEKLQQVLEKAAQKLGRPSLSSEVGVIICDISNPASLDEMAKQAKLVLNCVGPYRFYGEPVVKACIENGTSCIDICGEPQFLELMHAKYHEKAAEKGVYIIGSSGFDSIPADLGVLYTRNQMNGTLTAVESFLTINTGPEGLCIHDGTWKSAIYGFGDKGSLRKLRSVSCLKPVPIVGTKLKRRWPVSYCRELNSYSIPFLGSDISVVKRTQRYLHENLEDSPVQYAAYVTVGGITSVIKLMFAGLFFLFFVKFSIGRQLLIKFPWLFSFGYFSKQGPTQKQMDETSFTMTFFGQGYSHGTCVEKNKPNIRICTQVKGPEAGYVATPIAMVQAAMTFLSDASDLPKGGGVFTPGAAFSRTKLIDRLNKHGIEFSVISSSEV", "settings": "AEA-DA-modified peptide SCCPDH Q8R127 145-168, SEQ ID NO 96; probe 100 μM, 12 replicates", "experimental": "(§1) Experiments were performed as described above using the AEA-DA probe (100 μM) in 3.0 mL of DMEM (serum-free) and Neuro2A cells without (twelve replicates; ten biological; two technical). For the ligand competition study, cells were treated with the AEA-DA probe (50 μM) and DMSO or MJN228 (50 μM) treatment. Cells were harvested and processed as described above. Whole cell lysates (500 μL at 1.5 mg/mL) were processed for MS analysis using the previously described isoTOPABPP protocol (Speers and Cravatt, 2005). In brief, for global mapping of AEA-DA-modified peptides, proteomes were split into two fractions, which were subjected to click chemistry conditions with either light or heavy isotopically labeled TEV-tags. For the […] competition study, proteomes were subjected to click chemistry conditions with either light (DMSO) or heavy (MJN228-treated) TEV-tags. Light and heavy-tagged proteomes in each experiment were then combined, and, following enrichment of probe-labeled targets using streptavidin beads, proteins were digested on-bead with trypsin and remaining immobilized peptides released with a subsequent TEV protease digestion. The resulting probe-modified peptides were collected for MS analysis, which was performed as described above with differences in the salt bumps applied in the chromatographic gradients which were 0%, 30%, 60%, 90% and 100% NH4OAc (500 mM). The protein identification searches of the MS data were performed using the same software packages described above with the following changes applied to identify the peptides modified with AEA-DA and the cleaved TEV tag. All amino acids were considered as possible residues for modification. To facilitate the computational searches, sets of up to 3 amino acids were searched using ProLuCID and filtered with DTASelect as described above. The mass of the modification used to search for probe-modified peptides was +727.4745 m/z for the probe plus the light TEV-tag and +733.4831 m/z for the heavy counterpart. […] For global mapping experiments, AEA-DA-modified peptides were expected to show a ratio of “heavy” and “light” signals of ˜1.0 (0.5<ratio<2.0) and were required to have been detected in at least two of the twelve replicate experiments.\n(§2) In some embodiments, the ligands are tested for their interaction to NUCB1 in cells. […] MJN228 inhibited lipid probe binding to NUCB1 at concentrations as low as 10 μM, with near-maximal inhibition observed at ˜25 μM (FIG. 16A). […] The site of arachidonoyl probe (and MJN228) binding to NUCB1 was mapped in cells, which was accomplished by treating Neuro2A cells with the AEA-DA probe (50 μM) in the presence of DMSO or MJN228 (50 μM), followed by UV irradiation, CuAAC conjugation of AEA-DA-labeled proteins to isotopically light (DMSO-treated cells) and heavy (MJN228-treated cells) azide-biotin tags featuring a TEV protease-cleavable linker, and LCMS/MS analysis using a previously described platform, termed isoTOP-ABPP, for mapping probe-modified peptides in proteomes (Speers and Cravatt, 2005). A AEA-DA labeled peptide was identified for NUCB1 (aa 53-68) in DMSO-treated cells and the signals for this peptide were substantially (>5-fold) reduced in MJN228-treated cells (FIG. 15C). This AEA-DA labeling site was confirmed using recombinant, purified hNUCB1 and tandem MS analysis which narrowed down the site of probe modification to His67 (FIGS. 16B and 16C)."}, "[2]": {"molecular_target": "T2, AEA-DA-modified peptides in Neuro2a cells (Mus musculus, UniProt O35459)", "T2 construct": "endogenous in cells; host or cells: Neuro2a", "T2 sequence (O35459 34-327)": "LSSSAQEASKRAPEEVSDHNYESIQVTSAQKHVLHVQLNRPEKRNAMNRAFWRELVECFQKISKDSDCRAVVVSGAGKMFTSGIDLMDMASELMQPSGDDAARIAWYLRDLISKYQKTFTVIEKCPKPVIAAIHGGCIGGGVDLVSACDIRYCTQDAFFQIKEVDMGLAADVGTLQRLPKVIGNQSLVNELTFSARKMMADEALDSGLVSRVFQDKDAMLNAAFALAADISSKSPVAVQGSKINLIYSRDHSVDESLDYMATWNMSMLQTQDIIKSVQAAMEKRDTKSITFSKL", "settings": "probe 100 μM, 12 replicates", "experimental": "as §1, §2"}, "[3]": {"molecular_target": "T3, AEA-DA-modified peptides in Neuro2a cells (Mus musculus, UniProt P15626)", "T3 construct": "endogenous in cells; host or cells: Neuro2a", "T3 sequence (P15626 whole entry)": "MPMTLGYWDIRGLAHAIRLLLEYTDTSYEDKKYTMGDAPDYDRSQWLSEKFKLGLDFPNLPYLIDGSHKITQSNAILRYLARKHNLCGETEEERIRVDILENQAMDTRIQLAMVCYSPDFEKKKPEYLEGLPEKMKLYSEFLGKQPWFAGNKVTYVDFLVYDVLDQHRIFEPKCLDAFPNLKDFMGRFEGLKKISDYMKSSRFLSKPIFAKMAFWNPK", "settings": "AEA-DA-modified peptide GSTM2 P15626 109-123, SEQ ID NO 45; probe 100 μM, 12 replicates", "experimental": "as §1, §2"}, "[4]": {"molecular_target": "T4, AEA-DA-modified peptides in Neuro2a cells (Mus musculus, UniProt Q9CZN7)", "T4 construct": "endogenous in cells; host or cells: Neuro2a", "T4 sequence (Q9CZN7 30-504)": "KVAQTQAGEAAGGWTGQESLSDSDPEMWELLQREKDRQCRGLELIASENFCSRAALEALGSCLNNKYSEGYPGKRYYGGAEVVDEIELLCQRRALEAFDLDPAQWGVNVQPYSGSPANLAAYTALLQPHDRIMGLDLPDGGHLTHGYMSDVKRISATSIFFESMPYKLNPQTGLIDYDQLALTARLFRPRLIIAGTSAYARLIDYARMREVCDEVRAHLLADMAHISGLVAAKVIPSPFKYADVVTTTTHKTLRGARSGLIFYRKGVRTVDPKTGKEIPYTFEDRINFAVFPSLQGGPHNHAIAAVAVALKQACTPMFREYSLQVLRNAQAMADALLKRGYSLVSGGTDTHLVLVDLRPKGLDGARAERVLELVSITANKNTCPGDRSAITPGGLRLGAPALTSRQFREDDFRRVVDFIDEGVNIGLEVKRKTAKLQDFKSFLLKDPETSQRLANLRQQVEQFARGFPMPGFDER", "settings": "probe 100 μM, 12 replicates", "experimental": "as §1, §2"}, "[5]": {"molecular_target": "T5, AEA-DA-modified peptides in Neuro2a cells (Mus musculus, UniProt P57776)", "T5 construct": "endogenous in cells; host or cells: Neuro2a", "T5 sequence (P57776 whole entry)": "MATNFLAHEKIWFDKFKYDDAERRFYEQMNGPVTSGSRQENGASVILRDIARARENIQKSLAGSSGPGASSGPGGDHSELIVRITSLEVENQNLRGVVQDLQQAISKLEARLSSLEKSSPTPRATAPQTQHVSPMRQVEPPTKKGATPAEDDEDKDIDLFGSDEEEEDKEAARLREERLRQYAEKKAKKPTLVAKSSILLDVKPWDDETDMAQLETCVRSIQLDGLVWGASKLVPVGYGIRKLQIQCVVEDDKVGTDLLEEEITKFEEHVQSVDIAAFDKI", "settings": "AEA-DA-modified peptide EEF1D P57776 25-39, SEQ ID NO 35; probe 100 μM, 12 replicates", "experimental": "as §1, §2"}, "[6]": {"molecular_target": "T6, AEA-DA-modified peptides in Neuro2a cells (Mus musculus, UniProt Q8C4B4)", "T6 construct": "endogenous in cells; host or cells: Neuro2a", "T6 sequence (Q8C4B4 whole entry)": "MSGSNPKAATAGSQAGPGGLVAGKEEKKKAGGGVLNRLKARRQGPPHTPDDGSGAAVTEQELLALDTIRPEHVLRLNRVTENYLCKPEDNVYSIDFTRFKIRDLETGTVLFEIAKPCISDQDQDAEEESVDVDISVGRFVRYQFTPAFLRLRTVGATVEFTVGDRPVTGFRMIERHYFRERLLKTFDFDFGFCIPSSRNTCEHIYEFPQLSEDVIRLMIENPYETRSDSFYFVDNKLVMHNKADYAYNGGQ", "settings": "AEA-DA-modified peptide UNC119B Q8C4B4 142-151, SEQ ID NO 118; probe 100 μM, 12 replicates", "experimental": "as §1, §2"}, "[7]": {"molecular_target": "T7, AEA-DA-modified peptides in Neuro2a cells (Mus musculus, UniProt Q8CFE6)", "T7 construct": "endogenous in cells; host or cells: Neuro2a", "T7 sequence (Q8CFE6 whole entry)": "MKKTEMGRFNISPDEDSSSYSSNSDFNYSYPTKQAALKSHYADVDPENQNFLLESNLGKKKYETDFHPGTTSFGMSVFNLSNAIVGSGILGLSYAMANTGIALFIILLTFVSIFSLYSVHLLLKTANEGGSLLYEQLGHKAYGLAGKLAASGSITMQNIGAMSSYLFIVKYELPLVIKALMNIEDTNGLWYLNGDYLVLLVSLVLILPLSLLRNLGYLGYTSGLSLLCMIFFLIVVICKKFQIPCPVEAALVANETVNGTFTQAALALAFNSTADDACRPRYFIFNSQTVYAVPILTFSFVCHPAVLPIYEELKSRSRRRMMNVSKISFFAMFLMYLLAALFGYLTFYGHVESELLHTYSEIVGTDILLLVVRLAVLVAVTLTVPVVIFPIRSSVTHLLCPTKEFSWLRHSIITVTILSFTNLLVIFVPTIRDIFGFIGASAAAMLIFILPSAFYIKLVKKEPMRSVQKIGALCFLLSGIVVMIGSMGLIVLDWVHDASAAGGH", "settings": "AEA-DA-modified peptide SLC38A2 Q8CFE6 171-179, SEQ ID NO 105; probe 100 μM, 12 replicates", "experimental": "as §1, §2"}, "[8]": {"molecular_target": "T8, AEA-DA-modified peptides in Neuro2a cells (Mus musculus, UniProt P47867)", "T8 construct": "endogenous in cells; host or cells: Neuro2a", "T8 sequence (P47867 23-471)": "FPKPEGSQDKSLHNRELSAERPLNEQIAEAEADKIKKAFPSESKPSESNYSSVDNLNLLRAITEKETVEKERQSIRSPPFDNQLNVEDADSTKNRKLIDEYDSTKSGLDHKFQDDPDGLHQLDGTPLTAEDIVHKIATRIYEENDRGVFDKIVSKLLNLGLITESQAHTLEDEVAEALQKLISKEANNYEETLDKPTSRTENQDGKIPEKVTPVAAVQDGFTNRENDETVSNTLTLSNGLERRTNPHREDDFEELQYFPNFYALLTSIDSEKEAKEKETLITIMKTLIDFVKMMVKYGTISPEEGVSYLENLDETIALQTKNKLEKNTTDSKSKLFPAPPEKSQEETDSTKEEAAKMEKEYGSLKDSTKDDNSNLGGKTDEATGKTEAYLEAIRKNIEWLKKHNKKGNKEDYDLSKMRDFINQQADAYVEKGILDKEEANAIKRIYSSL", "settings": "AEA-DA-modified peptide SCG3 P47867 178-203, SEQ ID NO 97; probe 100 μM, 12 replicates", "experimental": "as §1, §2"}, "[9]": {"molecular_target": "T9, AEA-DA-modified peptides in Neuro2a cells (Mus musculus, UniProt Q9D771)", "T9 construct": "endogenous in cells; host or cells: Neuro2a", "T9 sequence (Q9D771 whole entry)": "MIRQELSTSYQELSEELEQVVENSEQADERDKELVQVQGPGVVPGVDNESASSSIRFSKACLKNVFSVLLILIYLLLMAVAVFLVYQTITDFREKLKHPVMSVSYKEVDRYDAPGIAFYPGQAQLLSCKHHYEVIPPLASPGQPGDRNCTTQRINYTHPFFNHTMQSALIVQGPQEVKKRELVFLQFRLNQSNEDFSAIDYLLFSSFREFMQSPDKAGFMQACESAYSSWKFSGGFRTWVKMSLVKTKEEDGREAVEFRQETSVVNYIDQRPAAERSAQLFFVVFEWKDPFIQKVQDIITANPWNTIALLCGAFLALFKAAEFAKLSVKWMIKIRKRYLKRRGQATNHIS", "settings": "AEA-DA-modified peptide TMEM206 Q9D771 247-260, SEQ ID NO 113; probe 100 μM, 12 replicates", "experimental": "as §1, §2"}, "[10]": {"molecular_target": "T10, AEA-DA-modified peptides in Neuro2a cells (Mus musculus, UniProt Q8BVU5)", "T10 construct": "endogenous in cells; host or cells: Neuro2a", "T10 sequence (Q8BVU5 47-350)": "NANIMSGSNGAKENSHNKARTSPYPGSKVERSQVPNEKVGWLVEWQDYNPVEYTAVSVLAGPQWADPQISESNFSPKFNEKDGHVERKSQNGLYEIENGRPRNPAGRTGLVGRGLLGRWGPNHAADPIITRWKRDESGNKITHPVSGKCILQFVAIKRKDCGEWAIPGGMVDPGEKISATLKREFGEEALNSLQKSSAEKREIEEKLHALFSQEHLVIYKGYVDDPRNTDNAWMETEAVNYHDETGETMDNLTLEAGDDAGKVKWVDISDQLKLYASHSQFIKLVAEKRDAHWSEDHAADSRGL", "settings": "AEA-DA-modified peptide NUDT9 Q8BVU5 230-242, SEQ ID NO 73; probe 100 μM, 12 replicates", "experimental": "as §1, §2"}, "[11]": {"molecular_target": "T11, AEA-DA-modified peptides in Neuro2a cells (Mus musculus, UniProt P35505)", "T11 construct": "endogenous in cells; host or cells: Neuro2a", "T11 sequence (P35505 whole entry)": "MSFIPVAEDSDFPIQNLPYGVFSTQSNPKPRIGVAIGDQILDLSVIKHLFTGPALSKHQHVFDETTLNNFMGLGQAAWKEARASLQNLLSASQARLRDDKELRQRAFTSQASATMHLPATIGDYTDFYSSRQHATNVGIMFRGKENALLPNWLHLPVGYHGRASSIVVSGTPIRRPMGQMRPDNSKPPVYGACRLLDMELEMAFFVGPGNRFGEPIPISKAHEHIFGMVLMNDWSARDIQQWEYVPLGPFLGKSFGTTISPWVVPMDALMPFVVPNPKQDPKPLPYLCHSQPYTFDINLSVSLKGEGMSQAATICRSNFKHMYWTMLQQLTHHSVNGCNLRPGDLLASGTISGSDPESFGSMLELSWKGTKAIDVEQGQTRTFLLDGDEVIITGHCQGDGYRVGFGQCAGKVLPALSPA", "settings": "AEA-DA-modified peptide FAH P35505 238-254, SEQ ID NO 40; probe 100 μM, 12 replicates", "experimental": "as §1, §2"}}}
{"smiles": "C#CCCCC1(CC/C=C\\C/C=C\\C/C=C\\CCCC(=O)NCCO)N=N1", "note": "[AEA-DA, (5Z,8Z,11Z)-N-(2-hydroxyethyl)-14-(3-(pent-4-yn-1-yl)-3H-diazirin-3-yl)tetradeca-5,8,11-trienamide]", "values": [{"measurement": "Times observed", "setting": "[1]", "value": 11}, {"measurement": "Times observed", "setting": "[2]; AEA-DA-modified peptide ECH1 O35459 185-211, SEQ ID NO 32", "value": 4}, {"measurement": "Times observed", "setting": "[2]; AEA-DA-modified peptide ECH1 O35459 196-211, SEQ ID NO 33", "value": 8}, {"measurement": "Times observed", "setting": "[3]", "value": 5}, {"measurement": "Times observed", "setting": "[4]; AEA-DA-modified peptide SHMT2 Q9CZN7 105-122, SEQ ID NO 101", "value": 9}, {"measurement": "Times observed", "setting": "[4]; AEA-DA-modified peptide SHMT2 Q9CZN7 161-182, SEQ ID NO 102", "value": 3}, {"measurement": "Times observed", "setting": "[5]", "value": 10}, {"measurement": "Times observed", "setting": "[6]", "value": 3}, {"measurement": "Times observed", "setting": "[7]", "value": 4}, {"measurement": "Times observed", "setting": "[8]", "value": 4}, {"measurement": "Times observed", "setting": "[9]", "value": 2}, {"measurement": "Times observed", "setting": "[10]", "value": 7}, {"measurement": "Times observed", "setting": "[11]", "value": 8}]}
